# Several values for one entry are separate records, joined by “and”; a condition that tells them apart may be missing. Equal entries are not always repeated.
# Columns and labels:
# [1] = system: pigmented guinea pigs exposed to traumatic octave band noise; experiment: ABR hearing thresholds after noise trauma (Example 1); format: in vivo; conditions: guinea pig; 1 mg/kg s.c. daily from 24 h before noise to day 21; noise 4.0 kHz 125 dB SPL 105 min; across test frequencies; 21 days after exposure
# Experimental: Baseline hearing of 8 pigmented guinea pigs (200-300 g) was tested by ABR as described below. ABR is a measure of hearing function. Four animals were treated with daily subcutaneous (s.c.) injections of the compound of Formula II, 1 mg/kg, starting 24 hours prior to noise trauma and lasting until 21 days after exposure to the noise trauma. Four animals served as controls and received only vehicle (the fourth animal died under anaesthesia). All the animals were exposed to traumatic octave band noise, center frequency 4.0 kHz, 125 dB SPL (sound pressure level) for 105 min.
# ABR thresholds were again determined 21 days after exposure to the noise trauma. ABR thresholds were measured with System II hardware and BioSig software (Tucker Davis Technology). Stimulus with 1 ms cos2 rise and fall and 18 ms plateau was presented with Beyer earphone connected to speculum (placed in the meatus of the external ear canal) at a rate of 20 Hz. Stimulus was calibrated against a Bruel & Kjaer 4134 microphone connected to a Bruel & Kjaer 2203 sound level meter. A Grass P15 preamplifier and custom amplifier provided gain of 10^5 and filtering of 0.3 to 3.0 kHz. Two responses were obtained at each intensity level. Thresholds were determined for the frequencies 2, 4, 8, 16 and 32 kHz from a set of responses at varying intensities with 5 dB intervals and 1000 sweeps near threshold.
# [2] = system: noise-exposed guinea pigs; experiment: ABR threshold shifts after noise exposure (Example 2); format: in vivo, guinea pig; conditions: day 6 postexposure; n=11; P<0.05 at 4 and 8 kHz, P<0.01 at 16 kHz
# Experimental: Adult Dunkin-Hartley female guinea pigs (weight 300-500 g) were exposed, 4 animals at a time, to octave band noise, with a center frequency of 4.0 kHz, 120 dB SPL for 6 hr as described in Example 1. Fragmented hair cell nuclei were assessed from noise-exposed cochleas immediately and 1, 2, 4, 6, 8 and 14 days after noise exposure. Noise-exposed and nonexposed guinea pigs were decapitated under deep anesthesia and inner ears were perilymphatically perfused with 4% paraformaldehyde in PBS, and processed for […] paraffin-embedded sections (Ylikoski et al., Hear Res 65:69-78, 1993; Ylikoski et al., Hear Res 124:17-26, 1998). TUNEL-staining was performed as described below. DNA fragmentation was also verified by DAPI nuclear counterstain (see below). Further, trauma-induced nuclear fragmentation was verified by morphological analysis of contralateral cochleas that were perilymphatically fixed with 2.5% glutaraldehyde in 0.1M phosphate buffer, pH 7.4, postfixed with 1% osmium tetroxide, embedded in epoxy resin, and prepared for surface preparations (see below). […]
# Auditory brainstem responses (ABRs) were measured 2 days before noise exposure, and 2, 6 and 14 days after exposure under anesthesia (xylazine 10 mg/kg and ketamine 40 mg/kg). […] Hearing threshold was determined from a set of responses at varying intensities. […]
# [3] = system: gentamicin-treated guinea pigs; experiment: ABR threshold shifts after gentamicin treatment; format: in vivo, guinea pig; conditions: gentamicin 120 mg/kg s.c. 14 days plus Formula II 1 mg/kg daily; day 30; n=8; P<0.01
# Experimental: Adult Dunkin-Hartley female guinea pigs (weight 300-400 g) were used. They were given free access to water and a regular guinea pig diet. The animals were given 1 week of adjustment before baseline ABR recordings and gentamicin (GM) treatment.
# Two experimental groups were formed. Group 1 guinea pigs served as control and were treated with gentamicin only. The animals were injected s.c. with gentamicin at 120 mg/kg body weight, once daily for 14 days. Three guinea pigs (yielding a total of 6 inner ears) were included in this group. The animals were decapitated 30 days after the start of the injections.
# Group 2 guinea pigs were treated with gentamicin plus Formula II. The animals were injected s.c. with GM at 120 mg/kg body weight, plus Formula II at 1 mg/kg, once daily for 14 days. Formula II treatment started 1 day before GM injections. Formula II treatment was continued for 28 or 29 days. Four guinea pigs (8 inner ears) were included in this group. The animals were decapitated 30 days after the start of GM injections.
# ABRs were determined 1 day before GM injections (baseline values) and at day 30 after the start of the GM injections. […] Thresholds were determined at frequencies 2, 4, 8, 16 and 32 kHz from a set of responses at varying intensities with 5 dB intervals and 1000 sweeps near the threshold. ABRs were measured with System II hardware and BioSig software. […]
# [4] = system: inner and outer hair cells of the cochlea; experiment: Hair cell counts, delayed dosing after noise trauma; format: in vivo, guinea pig
# Experimental: Guinea pigs were exposed to 120 dB, 4 kHz noise for 6 hr. The compound of Formula II was administered beginning 2 hours to 1 day prior to noise trauma, or 1 day after noise trauma, or 4 days after noise trauma. Dosing continued for 2 weeks after noise exposure. As described above, cochleas were prepared and numbers of preserved and lost inner hair cells (IHCs) and outer hair cells of different rows (OHC1, OHC2, OHC3) were counted 2 weeks post noise trauma.
structure (smiles),measurement,setting,value
CCSCc1ccc2c(c1)c1c3c(c4c5cc(CSCC)ccc5n5c4c1n2C1C[C@](O)(C(=O)OC)[C@]5(C)O1)CNC3=O [Formula II],ABR threshold shift,[1],20-40 dB
same,ABR threshold shifts versus noise-exposed control group,[2],significantly less
same,ABR threshold shift versus control cochleas (GM only),[3],less threshold shift at all frequencies tested
same,OHC loss total (%),"[4]; 1 day delayed dosing, single cochlea",6.4% and 3.7% and 1.2% and 2.0% and 5.4% and 2.4%
same,loss of hair cells versus control cochleas,"[4]; following exposure to noise, 1 day delayed P<0.01, 4 day delayed P<0.05",less loss of hair cells

# — patent publication US6448283B1, “Methods for preventing/treating damage to sensory hair cells and cochlear neurons” (Cephalon, Inc., priority 1998, dated 2002)
